Data: patent US5683981A, “Cyclic bridged analogs of α-MSH and methods thereof” (Competitive Technologies, Inc., priority 1995, dated 1997)
Non-standard residues stand in square brackets, D forms with d. Residues, ends and D or L forms follow the SMILES beside them.

Experiments:
lizard skin = test: Lizard skin assay: melanosome dispersion (skin darkening) in vitro; format: cell-based, Anolis carolinensis; settings: tested in the range 10^-12 to 10^-9 M; compared to half-maximal effective dose of α-MSH (10^-9 M)
Protocol: (§1) The peptides described above were examined to determine the relative potencies of the peptides in respect to the stimulation of a melanosome dispersion in vitro using the frog (Rana pipiens) and the lizard (Anolis carolinensis) [see Science 213:1025 (1981)]. These assays are recognized by the scientific communitty to be a fairly accurate representation of results that would be expected when the test substances are administered to vertebrates in vivo; if activity is found when the test substances are tested in the frog skin assay and the lizard skin assay, similar activity would be expected if the test substances are administered to vertebrates, i.e, darkening in the two assays would indicate that darkening would also occur in vertebrates. These assays measure the amount of light reflected from the surface of the skins in vitro. In response to melanotropic peptides, melanosomes within integumental melanocytes migrate from a perinuclear position into the dendritic processes of the pigment cells. This centrifugal organellar dispersion results in a change of color (darkening) of the skins which is measured by a Photovolt reflectometer and is expressed as the percent response compared to the initial (time zero) reflectance value. | ^a = all peptide derivatives were tested in the range of 10^-12 t | 10^-9 M concentration; compared to the halfmaximal effective dose of | aMSH in the frog skin assay (10^-10 M), or in the lizard skin assay | (10^-9 M).

frog skin = test: Frog skin assay: melanosome dispersion (skin darkening) in vitro; format: cell-based, Rana pipiens; settings: for Creeping potency (percentage skin darkening at a particular dose increases with time): frog skin bioassay; for Potencies Relative to α-MSH, Frog Skin Assay: tested in the range 10^-12 to 10^-9 M, compared to half-maximal effective dose of α-MSH (10^-10 M)
Protocol: as §1

[1] = test system: crude cell membranes of B-16 mouse melanoma cells; test: Affinity of peptide to homogenized crude cell membranes (HPLC of supernatant and pellet extract); format: binding
Protocol: 0.3 μmole of peptide SHU-9002 was dissolved in 1 ml solution of homogenized crude cell membranes, obtained from about 0.6 million B-16 mouse melanoma cells, in phosphate buffer. After 5 hrs, the suspension was centrifuged at 10,000×g for 10 min. The pellet was saved and the supernatant subjected to HPLC on a C-18 column.
The pellet saved above was treated with DMSO-0.1% aq. TFA mixture (1:1), centrifuged as before and the supernatant subjected to HPLC as earlier.

SMILES	Potencies Relative to α-MSH, Lizard Skin Assay (lizard skin)	Potencies Relative to α-MSH, Frog Skin Assay (frog skin)	further results
CCCC[C@H](NC(=O)[C@H](CO)NC(=O)[C@H](Cc1ccc(O)cc1)NC(=O)[C@H](CO)NC(C)=O)C(=O)N[C@H]1CCC(=O)N[C@@H](CCCNC(=N)N)C(=O)N[C@@H](CCCNC(=N)N)C(=O)NCCCC[C@@H](C(=O)N2CCC[C@H]2C(=O)N[C@H](C(N)=O)C(C)C)NC(=O)CNC(=O)[C@H](Cc2c[nH]c3ccccc23)NC(=O)[C@H](CCCNC(=N)N)NC(=O)[C@@H](Cc2ccccc2)NC(=O)[C@H](Cc2c[nH]cn2)NC1=O [SHU 9002]	2	25	Creeping potency (percentage skin darkening at a particular dose increases with time) (frog skin): exhibited creeping potency; Presence of peptide in supernatant after incubation with cell membranes (HPLC, C-18) ([1]; 0.3 μmole peptide in 1 ml membrane homogenate from about 0.6 million cells, phosphate buffer, 5 hrs, centrifuged 10,000×g 10 min): no evidence for the presence of the peptide SHU-9002 in the supernatant; Affinity to the cell membranes ([1]; conclusion from supernatant and pellet HPLC): marked affinity; Peptide recovered from membrane pellet (HPLC after DMSO-0.1% aq. TFA 1:1 treatment) ([1]; pellet of the 5 hrs incubation): elution pattern corresponding to the SHU-9002 was obtained
CCCC[C@H](NC(=O)[C@H](CO)NC(=O)[C@H](Cc1ccc(O)cc1)NC(=O)[C@H](CO)NC(C)=O)C(=O)N[C@H]1CCC(=O)N[C@@H](CCCCN)C(=O)N[C@@H](CCCCN)C(=O)NCCCC[C@@H](C(=O)N2CCC[C@H]2C(=O)N[C@H](C(N)=O)C(C)C)NC(=O)CNC(=O)[C@H](Cc2c[nH]c3ccccc23)NC(=O)[C@H](CCCNC(=N)N)NC(=O)[C@@H](Cc2ccccc2)NC(=O)[C@H](Cc2c[nH]cn2)NC1=O [SHU 9009]	5	100	
CCCC[C@H](NC(=O)[C@H](CO)NC(=O)[C@H](Cc1ccc(O)cc1)NC(=O)[C@H](CO)NC(C)=O)C(=O)N[C@H]1CCC(=O)N[C@@H](CCCCN)C(=O)N[C@@H](CCCNC(=N)N)C(=O)NCCCC[C@@H](C(=O)N2CCC[C@H]2C(=O)N[C@H](C(N)=O)C(C)C)NC(=O)CNC(=O)[C@H](Cc2c[nH]c3ccccc23)NC(=O)[C@H](CCCNC(=N)N)NC(=O)[C@@H](Cc2ccccc2)NC(=O)[C@H](Cc2c[nH]cn2)NC1=O [SHU 9010]		145	Creeping potency (percentage skin darkening at a particular dose increases with time) (frog skin): exhibited creeping potency
CC(=O)N[C@@H](CO)C(=O)N[C@@H](Cc1ccc(O)cc1)C(=O)N[C@@H](CCCCN)C(=O)N[C@@H](CCCCN)C(=O)N[C@H]1CCC(=O)N[C@@H](CCCNC(=N)N)C(=O)N[C@@H](CCCCN)C(=O)NCCCC[C@@H](C(=O)N2CCC[C@H]2C(=O)N[C@H](C(N)=O)C(C)C)NC(=O)CNC(=O)[C@H](Cc2c[nH]c3ccccc23)NC(=O)[C@H](CCCNC(=N)N)NC(=O)[C@@H](Cc2ccccc2)NC(=O)[C@H](Cc2c[nH]cn2)NC1=O [SHU 9013]	4	1	
CCCC[C@H](NC(=O)[C@H](CO)NC(=O)[C@H](Cc1ccc(O)cc1)NC(=O)[C@H](CO)NC(C)=O)C(=O)N[C@H]1CCC(=O)N[C@@H](CCCNC(=N)N)C(=O)N[C@@H](CCCCN)C(=O)NCCCC[C@@H](C(=O)N2CCC[C@H]2C(=O)N[C@H](C(N)=O)C(C)C)NC(=O)CNC(=O)[C@H](Cc2c[nH]c3ccccc23)NC(=O)[C@H](CCCNC(=N)N)NC(=O)[C@@H](Cc2ccccc2)NC(=O)[C@H](Cc2c[nH]cn2)NC1=O [SHU 9014]	4	20	
CCCC[C@H](NC(C)=O)C(=O)N[C@H]1CC(=O)N[C@@H](CCCCN)C(=O)N[C@@H](CCCNC(=N)N)C(=O)NCCCC[C@@H](C(N)=O)NC(=O)[C@H](Cc2c[nH]c3ccccc23)NC(=O)[C@H](CCCNC(=N)N)NC(=O)[C@@H](Cc2ccccc2)NC(=O)[C@H](Cc2c[nH]cn2)NC1=O [SHU 9018]	10	0.05	
CCCC[C@H](NC(C)=O)C(=O)N[C@H]1CC(=O)N[C@@H](CCCCN)C(=O)N[C@@H](CCCCN)C(=O)NCCCC[C@@H](C(N)=O)NC(=O)[C@H](Cc2c[nH]c3ccccc23)NC(=O)[C@H](CCCNC(=N)N)NC(=O)[C@@H](Cc2ccccc2)NC(=O)[C@H](Cc2c[nH]cn2)NC1=O [SHU 9019]	12.5		
CCCC[C@H](NC(C)=O)C(=O)N[C@H]1CC(=O)N[C@@H](CCCNC(=N)N)C(=O)N[C@@H](CCCNC(=N)N)C(=O)NCCCC[C@@H](C(N)=O)NC(=O)[C@H](Cc2c[nH]c3ccccc23)NC(=O)[C@H](CCCNC(=N)N)NC(=O)[C@@H](Cc2ccccc2)NC(=O)[C@H](Cc2c[nH]cn2)NC1=O [SHU 9020]	6.7	0.14	
CCCC[C@H](NC(C)=O)C(=O)N[C@H]1CC(=O)N[C@@H](CCCNC(=N)N)C(=O)N[C@@H](CCCCN)C(=O)NCCCC[C@@H](C(N)=O)NC(=O)[C@H](Cc2c[nH]c3ccccc23)NC(=O)[C@H](CCCNC(=N)N)NC(=O)[C@@H](Cc2ccccc2)NC(=O)[C@H](Cc2c[nH]cn2)NC1=O [SHU 9021]	13.4	0.25	
CCCC[C@@H]1NC(=O)CC[C@H](NC(=O)[C@H](CCCC)NC(=O)[C@H](CO)NC(=O)[C@H](Cc2ccc(O)cc2)NC(=O)[C@H](CO)NC(C)=O)C(=O)N[C@@H](Cc2c[nH]cn2)C(=O)N[C@H](Cc2ccccc2)C(=O)N[C@@H](CCCNC(=N)N)C(=O)N[C@@H](Cc2c[nH]c3ccccc23)C(=O)NCC(=O)N[C@H](C(=O)N2CCC[C@H]2C(=O)N[C@H](C(N)=O)C(C)C)CCCCNC(=O)[C@H](CCCC)NC1=O [SHU 9026]		7	
CC(=O)N[C@@H](CO)C(=O)N[C@@H](Cc1ccc(O)cc1)C(=O)N[C@@H](CCCCN)C(=O)N[C@@H](CCCCN)C(=O)N[C@@H](CCC(=O)O)C(=O)N[C@@H](Cc1c[nH]cn1)C(=O)N[C@H](Cc1ccccc1)C(=O)N[C@@H](CCCNC(=N)N)C(=O)N[C@@H](Cc1c[nH]c2ccccc12)C(=O)NCC(=O)N[C@@H](CCCCN)C(=O)N1CCC[C@H]1C(=O)N[C@H](C(N)=O)C(C)C [SHU 9027, Ac[Lys^3,4, DPhe^7]-α-MSH1-13NH2] (Ac-SYKKEH[dF]RWGKPV-NH2)		0.4	
CCCC[C@H](NC(=O)[C@H](CO)NC(=O)[C@H](Cc1ccc(O)cc1)NC(=O)[C@H](CO)NC(C)=O)C(=O)N[C@H]1CCC(=O)NCCCC[C@@H](C(=O)N2CCC[C@H]2C(=O)N[C@H](C(N)=O)C(C)C)NC(=O)CNC(=O)[C@H](Cc2c[nH]c3ccccc23)NC(=O)[C@H](CCCNC(=N)N)NC(=O)[C@@H](Cc2ccccc2)NC(=O)[C@H](Cc2c[nH]cn2)NC1=O [SHU-9205]		1.3	
CCCC[C@H](NC(=O)[C@H](CO)NC(=O)[C@H](Cc1ccc(O)cc1)NC(=O)[C@H](CO)NC(C)=O)C(=O)N[C@H]1CCC(=O)N[C@@H](CCC(=O)O)C(=O)N[C@@H](CCC(=O)O)C(=O)NCCCC[C@@H](C(=O)N2CCC[C@H]2C(=O)N[C@H](C(N)=O)C(C)C)NC(=O)CNC(=O)[C@H](Cc2c[nH]c3ccccc23)NC(=O)[C@H](CCCNC(=N)N)NC(=O)[C@@H](Cc2ccccc2)NC(=O)[C@H](Cc2c[nH]cn2)NC1=O [SHU-9207]		1.3	
CCCC[C@H](NC(=O)[C@H](CO)NC(=O)[C@H](Cc1ccc(O)cc1)NC(=O)[C@H](CO)NC(C)=O)C(=O)N[C@H]1CCC(=O)N[C@@H](CO)C(=O)N[C@@H](CO)C(=O)NCCCC[C@@H](C(=O)N2CCC[C@H]2C(=O)N[C@H](C(N)=O)C(C)C)NC(=O)CNC(=O)[C@H](Cc2c[nH]c3ccccc23)NC(=O)[C@H](CCCNC(=N)N)NC(=O)[C@@H](Cc2ccccc2)NC(=O)[C@H](Cc2c[nH]cn2)NC1=O [SHU-9209]		5	
CCCC[C@H](NC(=O)[C@H](CO)NC(=O)[C@H](Cc1ccc(O)cc1)NC(=O)[C@H](CO)NC(C)=O)C(=O)N[C@H]1CCC(=O)N[C@H](CCCCN)C(=O)N[C@H](CCCCN)C(=O)NCCCC[C@@H](C(=O)N2CCC[C@H]2C(=O)N[C@H](C(N)=O)C(C)C)NC(=O)CNC(=O)[C@H](Cc2c[nH]c3ccccc23)NC(=O)[C@H](CCCNC(=N)N)NC(=O)[C@@H](Cc2ccccc2)NC(=O)[C@H](Cc2c[nH]cn2)NC1=O [SHU-9210]		3.5	
